# Reference: patent US20100298141A1, “SUBSTITUTED PYRIDINE N-OXIDE HERBICIDES” (E. I. DU PONT DE NEMOURS AND COMPANY, priority 2007, published 2010)
# What was measured:
# barnyardgrass [1] = test: Test A pre-/postemergence greenhouse test; assay type: in vivo, Echinochloa crus-galli; conditions: for Plant response rating, Barnyardgrass: 0 to 100 scale where 0 is no effect and 100 is complete control; for Barnyardgrass plant response rating: 0 to 100 scale
# Summary of the method: (§1)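 Herbicidal effect is a visual injury score given about ten days post-treatment by comparison with untreated controls. Preemergence plots received a directed spray onto sown loam–sand soil; postemergence plants, at the one- to two-leaf stage and 2–10 cm tall, were sprayed at the same time.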
# crabgrass = test: Test A pre-/postemergence greenhouse test; assay type: in vivo, Digitaria sanguinalis; conditions: for Plant response rating, Crabgrass, Large: 0 to 100 scale where 0 is no effect and 100 is complete control; for Crabgrass, Large plant response rating: 0 to 100 scale
# Summary of the method: as §1
# giant foxtail = test: Test A pre-/postemergence greenhouse test; assay type: in vivo, Setaria faberi; conditions: for Plant response rating, Foxtail, Giant: 0 to 100 scale where 0 is no effect and 100 is complete control; for Foxtail, Giant plant response rating: 0 to 100 scale
# Summary of the method: as §1
# velvetleaf [2] = test: Test A pre-/postemergence greenhouse test; assay type: in vivo, Abutilon theophrasti; conditions: for Plant response rating, Velvetleaf: 0 to 100 scale where 0 is no effect and 100 is complete control; for Velvetleaf plant response rating: 0 to 100 scale
# Summary of the method: as §1
# blackgrass = test: Test C pre-/postemergence test; assay type: in vivo, Alopecurus myosuroides
# Summary of the method: (§2)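 Test chemicals were formulated with surfactant in a non-phytotoxic solvent and sprayed both on freshly planted seeds (preemergence) and on 1- to 4-leaf plants of 2–18 cm (postemergence). Flooded-paddy pots received compound directly into 3 cm of standing water, maintained for the test.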
# downy brome = test: Test C pre-/postemergence test; assay type: in vivo, Bromus tectorum
# Summary of the method: as §2
# green foxtail = test: Test C pre-/postemergence test; assay type: in vivo, Setaria viridis
# Summary of the method: as §2
# catchweed bedstraw = test: Test C pre-/postemergence test; assay type: in vivo, Galium aparine
# Summary of the method: as §2
# Surinam grass = test: Test C pre-/postemergence test; assay type: in vivo, Brachiaria decumbens
# Summary of the method: as §2
# woolly cupgrass = test: Test C pre-/postemergence test; assay type: in vivo, Eriochloa villosa
# Summary of the method: as §2
# lambsquarters = test: Test C pre-/postemergence test; assay type: in vivo, Chenopodium album
# Summary of the method: as §2
# pigweed = test: Test C pre-/postemergence test; assay type: in vivo, Amaranthus retroflexus
# Summary of the method: as §2
# common ragweed = test: Test C pre-/postemergence test; assay type: in vivo, Ambrosia elation
# Summary of the method: as §2
# soybean = test: Test C pre-/postemergence test; assay type: in vivo, Glycine max
# Summary of the method: as §2
# velvetleaf [3] = test: Test C pre-/postemergence test; assay type: in vivo, Abutilon theophrasti
# Summary of the method: as §2
# duck salad = test: Test C flooded paddy test; assay type: in vivo, Heteranthera limosa; conditions: Flood
# Summary of the method: (§3)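 Flooded 3 cm over soil; compound into paddy water; depth kept constant. Greenhouse 13–15 d.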
# barnyardgrass [4] = test: Test C flooded paddy test; assay type: in vivo, Echinochloa crus-galli; conditions: Flood
# Summary of the method: as §3
# [5] = Postemergence, 500 g ai/ha, 0 is no effect, 100 is complete control
# [6] = Preemergence, 125 g ai/ha, 0 no effect, 100 complete control
# [7] = 62 g ai/ha, Preemergence, scale 0 to 100
# [8] = 125 g ai/ha, preemergence, scale 0 (no effect) to 100 (complete control)
# [9] = Postemergence, 62 g ai/ha, scale 0 to 100, 0 no effect, 100 complete control
# [10] = Postemergence, 125 g ai/ha, scale 0 to 100, 0 no effect, 100 complete control
# [11] = Postemergence, 250 g ai/ha, scale 0 to 100, 0 no effect, 100 complete control
# [12] = Preemergence, 31 g ai/ha, scale 0 to 100 (0 no effect, 100 complete control)
# [13] = preemergence, 250 g ai/ha, scale 0 (no effect) to 100 (complete control)
# [14] = 62 g ai/ha, scale 0 to 100 (0 no effect, 100 complete control)
# [15] = 250 g ai/ha, scale 0 to 100, 0 no effect, 100 complete control, 13 to 15 days
smiles,measurement,setting,value
Cn1nc(C(F)(F)F)c(C[S+]([O-])c2ccc(Cl)c[n+]2[O-])c1OCC(F)(F)F (racemic) [Compound 62],"Plant response rating, Barnyardgrass","barnyardgrass [1]; Postemergence, 125 g ai/ha",80
same,Barnyardgrass plant response rating,barnyardgrass [1]; [5],90
same,Barnyardgrass plant response rating,barnyardgrass [1]; [6],90
same,"Plant response rating, Barnyardgrass","barnyardgrass [1]; Preemergence, 500 g ai/ha",100
same,"Plant response rating, Crabgrass, Large","crabgrass; Postemergence, 125 g ai/ha",80
same,"Crabgrass, Large plant response rating",crabgrass; [5],90
same,"Crabgrass, Large plant response rating",crabgrass; [6],100
same,"Plant response rating, Crabgrass, Large","crabgrass; Preemergence, 500 g ai/ha",100
same,"Plant response rating, Foxtail, Giant","giant foxtail; Postemergence, 125 g ai/ha",90
same,"Foxtail, Giant plant response rating",giant foxtail; [5],90
same,"Foxtail, Giant plant response rating",giant foxtail; [6],100
same,"Plant response rating, Foxtail, Giant","giant foxtail; Preemergence, 500 g ai/ha",100
same,"Plant response rating, Velvetleaf","velvetleaf [2]; Postemergence, 125 g ai/ha",60
same,Velvetleaf plant response rating,velvetleaf [2]; [5],90
same,Velvetleaf plant response rating,velvetleaf [2]; [6],100
same,"Plant response rating, Velvetleaf","velvetleaf [2]; Preemergence, 500 g ai/ha",100
same,Blackgrass plant response rating,blackgrass; [7],98
same,Blackgrass plant response rating,blackgrass; [8],100
same,"Plant response rating (0 to 100), Blackgrass","blackgrass; Postemergence, 31 g ai/ha",40
same,"Plant response rating, Blackgrass",blackgrass; [9],40
same,"Plant response rating, Blackgrass",blackgrass; [10],60
same,"Plant response rating, Blackgrass",blackgrass; [11],80
same,"Plant response rating, Blackgrass",blackgrass; [12],90
same,Blackgrass plant response rating,blackgrass; [13],100
same,"Bromegrass, Downy plant response rating",downy brome; [7],50
same,"Bromegrass, Downy plant response rating",downy brome; [8],70
same,"Plant response rating (0 to 100), Bromegrass, Downy","downy brome; Postemergence, 31 g ai/ha",0
same,"Plant response rating, Bromegrass, Downy",downy brome; [9],0
same,"Plant response rating, Bromegrass, Downy",downy brome; [10],45
same,"Plant response rating, Bromegrass, Downy",downy brome; [11],60
same,"Plant response rating, Bromegrass, Downy",downy brome; [12],50
same,"Bromegrass, Downy plant response rating",downy brome; [13],85
same,"Foxtail, Green plant response rating",green foxtail; [7],100
same,"Foxtail, Green plant response rating",green foxtail; [8],100
same,"Plant response rating (0 to 100), Foxtail, Green","green foxtail; Postemergence, 31 g ai/ha",0
same,"Plant response rating, Foxtail, Green",green foxtail; [9],20
same,"Plant response rating, Foxtail, Green",green foxtail; [10],40
same,"Plant response rating, Foxtail, Green",green foxtail; [11],80
same,"Plant response rating, Foxtail, Green",green foxtail; [12],80
same,"Foxtail, Green plant response rating",green foxtail; [13],100
same,Galium plant response rating,catchweed bedstraw; [7],100
same,Galium plant response rating,catchweed bedstraw; [8],100
same,"Plant response rating, Galium",catchweed bedstraw; [12],100
same,Galium plant response rating,catchweed bedstraw; [13],100
same,Surinam Grass plant response rating,Surinam grass; [7],98
same,Surinam Grass plant response rating,Surinam grass; [8],100
same,"Plant response rating (0 to 100), Surinam Grass","Surinam grass; Postemergence, 31 g ai/ha",0
same,"Plant response rating (0 to 100), Surinam Grass","Surinam grass; Postemergence, 62 g ai/ha",0
same,"Plant response rating, Surinam Grass",Surinam grass; [10],0
same,"Plant response rating, Surinam Grass",Surinam grass; [11],60
same,"Plant response rating, Surinam Grass",Surinam grass; [12],80
same,Surinam Grass plant response rating,Surinam grass; [13],100
same,"Cupgrass, Woolly plant response rating",woolly cupgrass; [7],70
same,"Cupgrass, Woolly plant response rating",woolly cupgrass; [8],100
same,"Plant response rating (0 to 100), Cupgrass, Woolly","woolly cupgrass; Postemergence, 31 g ai/ha",0
same,"Plant response rating, Cupgrass, Woolly",woolly cupgrass; [9],0
same,"Plant response rating, Cupgrass, Woolly",woolly cupgrass; [10],0
same,"Plant response rating, Cupgrass, Woolly",woolly cupgrass; [11],50
same,"Plant response rating, Cupgrass, Woolly",woolly cupgrass; [12],0
same,"Cupgrass, Woolly plant response rating",woolly cupgrass; [13],100
same,Lambsquarters plant response rating,lambsquarters; [7],100
same,Lambsquarters plant response rating,lambsquarters; [8],100
same,"Plant response rating (0 to 100), Lambsquarters","lambsquarters; Postemergence, 31 g ai/ha",0
same,"Plant response rating, Lambsquarters",lambsquarters; [9],0
same,"Plant response rating, Lambsquarters",lambsquarters; [10],0
same,"Plant response rating, Lambsquarters",lambsquarters; [11],0
same,"Plant response rating, Lambsquarters",lambsquarters; [12],100
same,Lambsquarters plant response rating,lambsquarters; [13],100
same,Pigweed plant response rating,pigweed; [7],100
same,Pigweed plant response rating,pigweed; [8],100
same,"Plant response rating (0 to 100), Pigweed","pigweed; Postemergence, 31 g ai/ha",0
same,"Plant response rating (0 to 100), Pigweed","pigweed; Postemergence, 62 g ai/ha",0
same,"Plant response rating, Pigweed",pigweed; [10],0
same,"Plant response rating, Pigweed",pigweed; [11],5
same,"Plant response rating, Pigweed",pigweed; [12],80
same,Pigweed plant response rating,pigweed; [13],100
same,Ragweed plant response rating,common ragweed; [7],100
same,Ragweed plant response rating,common ragweed; [8],100
same,"Plant response rating (0 to 100), Ragweed","common ragweed; Postemergence, 31 g ai/ha",0
same,"Plant response rating (0 to 100), Ragweed","common ragweed; Postemergence, 62 g ai/ha",0
same,"Plant response rating, Ragweed",common ragweed; [10],0
same,"Plant response rating, Ragweed",common ragweed; [11],0
same,"Plant response rating, Ragweed",common ragweed; [12],100
same,Ragweed plant response rating,common ragweed; [13],100
same,Soybean plant response rating,soybean; [7],100
same,Soybean plant response rating,soybean; [8],100
same,"Plant response rating (0 to 100), Soybean","soybean; Postemergence, 31 g ai/ha",30
same,"Plant response rating (0 to 100), Soybean","soybean; Postemergence, 62 g ai/ha",50
same,"Plant response rating, Soybean",soybean; [10],60
same,"Plant response rating, Soybean",soybean; [12],70
same,Velvetleaf plant response rating,velvetleaf [3]; [7],90
same,Velvetleaf plant response rating,velvetleaf [3]; [8],100
same,"Plant response rating (0 to 100), Velvetleaf","velvetleaf [3]; Postemergence, 31 g ai/ha",0
same,"Plant response rating (0 to 100), Velvetleaf","velvetleaf [3]; Postemergence, 62 g ai/ha",0
same,"Plant response rating, Velvetleaf",velvetleaf [3]; [10],5
same,"Plant response rating, Velvetleaf",velvetleaf [3]; [11],40
same,"Plant response rating, Velvetleaf",velvetleaf [3]; [12],40
same,Velvetleaf plant response rating,velvetleaf [3]; [13],100
same,"Plant response rating, Ducksalad",duck salad; [14],70
same,"Plant response rating, Ducksalad",duck salad; [15],85
same,"Plant response rating, Barnyardgrass",barnyardgrass [4]; [14],30
same,"Plant response rating, Barnyardgrass",barnyardgrass [4]; [15],70
